According to ChEMBL document CHEMBL3272151, “Quantitative structure-activity relationship of chymotrypsin-ligand interactions” (J Med Chem, 1977):
Each block holds one compound with its values, some of them ahead of it.

Assays:
Conditions in all cases: Homo sapiens
[1] = Binding affinity to alpha-chymotrypsin (unknown origin)
[2] = Binding affinity to alpha-chymotrypsin (unknown origin) assessed as hydrolysis
[3] = Binding affinity to chymotrypsin (unknown origin) assessed as hydrolysis
[4] = Binding affinity to chymotrypsin (unknown origin) assessed as acetylation at pH 7
[5] = Binding affinity to chymotrypsin (unknown origin) assessed as acetylation at pH 6
[6] = Binding affinity to chymotrypsin (unknown origin)
[7] = Binding affinity to chymotrypsin (unknown origin) assessed as deacetylation

SMILES: COC(=O)CNC(=O)c1ccccn1
log(1/Km) [1]: 2
logKcat [2]: 0.39

SMILES: COC(=O)CNC(=O)c1ccco1
log(1/Km) [1]: 1.71
logKcat [2]: -0.01

SMILES: COC(=O)CNC(=O)C(Cl)Cl
log(1/Km) [1]: 1.66
logKcat [2]: -1.64

SMILES: COC(=O)CNC(C)=O
log(1/Km) [1]: 1.51
log K [4]: -0.31
logKcat [2]: -1.89

SMILES: CCC(=O)NCC(=O)OC
log(1/Km) [1]: 1.42
logKcat [2]: -1.74

SMILES: COC(=O)CNS(C)(=O)=O
log(1/Km) [1]: 1.07
logKcat [2]: -1.92

SMILES: CCSCC(=O)NCC(=O)OC
log(1/Km) [1]: 1.98
logKcat [2]: -2.27

SMILES: CCOC(=O)CNC(C)=O
log(1/Km) [6]: 1.2
log K [4]: -1.03
logKcat [2]: -1.42

SMILES: COC(=O)CNC(=O)CCl
log(1/Km) [1]: 1.16
logKcat [3]: -1.26

SMILES: COC(=O)CNC(=O)C(C)C
log(1/Km) [1]: 1.34
logKcat [2]: -1.68

SMILES: CC(=O)N[C@H](C(=O)OC(C)C)C(C)C
logKcat [3]: -1.08
log(1/Km) [6]: 0.75
log K [4]: -0.75
log K [7]: -0.68

SMILES: COC(=O)CNC(=O)CC(C)C
log(1/Km) [1]: 1.62
logKcat [2]: -1.6

SMILES: CCCC[C@H](NC(C)=O)C(=O)OC
logKcat [3]: 0.92
log(1/Km) [6]: 2.17
log K [4]: 2.01
log K [7]: 1.28

SMILES: CCOC(=O)NCC(=O)OC
log(1/Km) [1]: 1.19
logKcat [2]: -0.88

SMILES: CCC[C@H](NC(C)=O)C(=O)OC
logKcat [3]: 0.43
log(1/Km) [6]: 1.99
log K [4]: 1.55
log K [7]: 0.77

SMILES: COC(=O)[C@@H](NC(C)=O)C(C)C
logKcat [3]: -0.82
log(1/Km) [6]: 0.95
log K [4]: -0.01
log K [7]: -0.68

SMILES: COC(=O)CNC(=O)C(F)(F)F
log(1/Km) [1]: 1.27
logKcat [2]: -1.07

More lines, now with the values ahead:

log(1/Km) [1]: 1.75
logKcat [2]: -0.8
SMILES: COC(=O)CNC(=O)c1ccncc1

log(1/Km) [1]: 2.12
logKcat [3]: -0.9
log K [4]: -0.38
SMILES: COC(=O)CNC(=O)c1ccccc1

log K [4]: 3.11
log K [5]: 2.74
SMILES: O=C(Oc1ccc([N+](=O)[O-])cc1)c1ccc(F)cc1

log K [4]: 3.59
log K [5]: 3.22
SMILES: O=C(Oc1ccc([N+](=O)[O-])cc1)c1cccc(C(F)(F)F)c1

log(1/Km) [1]: 2.86
logKcat [3]: -1.25
SMILES: COC(=O)CNC(=O)c1c[nH]c2ccccc12

log(1/Km) [1]: 2.08
logKcat [2]: -1.39
SMILES: COC(=O)CNC(=O)c1ccc(N)cc1

log K [4]: 3.97
log K [5]: 3.87
SMILES: CCc1ccc(C(=O)Oc2ccc([N+](=O)[O-])cc2)cc1

logKcat [3]: 0.39
log(1/Km) [6]: 3.07
log K [4]: 0.62
log K [7]: 0.77
SMILES: CCC[C@H](NC(=O)c1ccccc1)C(=O)OC

logKcat [3]: -0.49
log(1/Km) [6]: 2.85
log K [4]: -0.39
log K [7]: 0.18
SMILES: CC[C@H](NC(=O)c1ccccc1)C(=O)OC

log K [4]: 3.31
log K [5]: 2.85
SMILES: Cc1ccc(C(=O)Oc2ccc([N+](=O)[O-])cc2)cc1

logKcat [3]: -1.16
log(1/Km) [6]: 2.22
log K [4]: -1.16
log K [7]: -0.22
SMILES: CCOC(=O)[C@H](C)NC(=O)c1ccccc1

log(1/Km) [1]: 1.5
logKcat [2]: -0.34
SMILES: COC(=O)CNC(=O)c1cccnc1

logKcat [3]: 1.84
log(1/Km) [6]: 2.96
log K [4]: 2.42
log K [7]: 1.97
SMILES: CCOC(=O)[C@H](Cc1ccccc1)NC(C)=O

logKcat [3]: 1.72
log(1/Km) [6]: 2.9
log K [4]: 2.9
log K [7]: 2.04
SMILES: COC(=O)[C@H](Cc1ccccc1)NC(C)=O

log K [4]: 3.77
log K [5]: 3.43
SMILES: O=C(Oc1ccc([N+](=O)[O-])cc1)c1cccc(Cl)c1

logKcat [3]: 1.49
log(1/Km) [6]: 4.46
log K [4]: 1.66
log K [7]: 1.96
SMILES: COC(=O)[C@H](Cc1ccccc1)NC(=O)c1ccccc1

log(1/Km) [1]: 2.1
logKcat [2]: -2.22
SMILES: COC(=O)CNC(=O)Cc1ccccc1

logKcat [3]: 1.93
log(1/Km) [6]: 4.66
log K [4]: 2.4
log K [7]: 2.12
SMILES: CCOC(=O)[C@H](Cc1ccc(O)cc1)NC(=O)c1ccccc1

log K [4]: 3.94
log K [5]: 3.35
SMILES: N#Cc1ccc(C(=O)Oc2ccc([N+](=O)[O-])cc2)cc1

log(1/Km) [1]: 3.49
logKcat [2]: 2.07
SMILES: COC(=O)[C@H](Cc1ccc(O)cc1)NC(C)=O
